Laboratory results from patent US10301317B2, “Inhibitors of ERK and methods of use” (Kura Oncology, Inc., priority 2013, dated 2019).

Tested on: phospho-p90 RSK (RSK1 Thr359/Ser363) in A375 (Braf V600E) cells
Assay: Phospho-p90 RSK ELISA using A375 (Braf V600E) cells
Format: cell-based
Conditions: Homo sapiens, A-375, 2 hours compound treatment, read-out: Cellular Phospho-p90RSK IC50
Protocol: In preparation for the assay, an ELISA plate with the pre-coated goat anti-mouse antibody (Thermo Scientific) was treated with a mouse anti-human RSK1 antibody (monoclonal, Invitrogen) at 1:800 dilution (150 ng/well) in PBS, and the plate was placed on a plate shaker at 4° C. overnight. […] After two […] of the compound treatment, the supernatant was removed from the cell plate, and cells were lysed in 100 μl per well of cell lysis buffer (Cell Signaling Technologies) containing phosphatase and protease inhibitors (Cell Signaling Technologies) on a plate shaker at 4° C. for 20 minutes. The ELISA plate was washed four times with ELISA wash buffer (Thermo Scientific) prior to addition of 100 μL cell lysate. The lysate was incubated on the ELISA plate with gentle shaking at room temperature for 2 hours. The contents of the wells were removed, and the ELISA plate was washed four times with wash buffer, and incubated with 100 μL per well of anti-phospho-RSK1 (Thr359/Ser363) rabbit monoclonal antibody (Millipore) at dilution of 1:1000 in StartingBlock buffer (Thermo Scientific) on a plate shaker at room temperature for 1 hour. The contents of the wells were removed, the ELISA plate was washed four times with wash buffer, and was incubated with 100 μL per well of goat anti-rabbit HRP (Thermo Scientific) at dilution of 1:3000 in StartingBlock buffer (Thermo Scientific) on a plate shaker at room temperature for 1 hour. The contents of the wells were removed, the ELISA plate was washed four times with wash buffer, and then incubated with 100 μL per well of TMB substrate solution (Thermo Scientific) on a plate shaker at room temperature for 20 minutes. Finally, 100 μL of TMB stop solution (Thermo Scientific) was added to each well and the absorbance is measured at 450 nm on a Tecan plate reader.

| SMILES | IC50 |
| --- | --- |
| Cc1cc(-c2n[nH]c3cc4c(cc23)CN([C@@H]2CN(CC(F)(F)F)C[C@H]2C2CC2)C(=O)N4)ccn1 (mixture of isomers) [Example 319] | 250 to 1000 nM |
| COc1ncc(-c2n[nH]c3cc4c(cc23)CN([C@@H]2CN(C)C[C@H]2c2ccccc2)C(=O)N4)cn1 (mixture of isomers) [Example 355] | 250 to 1000 nM |
| O=C1Nc2cc3[nH]nc(-c4ccc5nncn5c4)c3cc2CN1Cc1cccc(Cl)c1 [Example 59] | > 1000 nM |
| N#Cc1cccc(CN2Cc3cc4c(-c5ccnnc5)n[nH]c4cc3NC2=O)c1 [Example 128] | > 1000 nM |
| CN(C)CCN1CCN(c2n[nH]c3cc4c(cc23)CN(Cc2ccc(F)c(Cl)c2)C(=O)N4)CC1 [Example 260] | > 1000 nM |
| COc1ncccc1CN1CCC[C@@H](N2Cc3cc4c(-c5ccnc(C)c5)n[nH]c4cc3NC2=O)C1 [Example 150] | ≤ 250 nM |
| COc1cc(-c2n[nH]c3cc4c(cc23)CN(Cc2ccc(F)c(Cl)c2)C(=O)N4)ccn1 [Example 38] | 250 to 1000 nM |
| COc1cccc(F)c1CN1CCC[C@@H](N2Cc3cc4c(-c5ccnnc5)n[nH]c4cc3NC2=O)C1 [Example 126] | ≤ 250 nM |
| Cc1cc(-c2n[nH]c3cc4c(cc23)CN(Cc2ccccc2Cl)C(=O)N4)ccn1 [Example 217] | ≤ 250 nM |
| Cc1cc(-c2n[nH]c3cc4c(cc23)CN([C@@H]2CCCN(CC3CC5CCC3C5)C2)C(=O)N4)ccn1 (stereo partly shown) [Example 142] | ≤ 250 nM |
| Cc1cc(-c2n[nH]c3cc4c(cc23)CN(Cc2cccc(C#N)c2)C(=O)N4)ccn1 [Example 55] | ≤ 250 nM |
| Cn1nccc1-c1n[nH]c2cc3c(cc12)CN(Cc1cccc(Cl)c1)C(=O)N3 [Example 235] | > 1000 nM |
| Cc1cc(-c2n[nH]c3cc4c(cc23)CN([C@@H]2CCCN(CCc3ccccc3)C2)C(=O)N4)ccn1 [Example 145] | 250 to 1000 nM |
| Cc1cc(-c2n[nH]c3cc4c(cc23)CN([C@@H]2CCCN(CC3CCC3)C2)C(=O)N4)ccn1 [Example 137] | 250 to 1000 nM |
| Cc1cc(-c2n[nH]c3cc4[nH]c(=O)c([C@@H](C)c5ccc(F)cc5)cc4cc23)ccn1 [Example 287] | 250 to 1000 nM |
| Cc1cnccc1-c1n[nH]c2cc3[nH]c(=O)c(C(C)c4ccccc4)cc3cc12 (stereo not shown) [Example 343] | > 1000 nM |
| COc1ncc(-c2n[nH]c3cc4c(cc23)CN([C@@H]2CN(CC(F)(F)F)C[C@H]2c2ccccc2)C(=O)N4)cn1 [Example 348] | ≤ 250 nM |
| O=C1Nc2cc3[nH]nc(-c4ccnnc4)c3cc2CN1[C@@H]1CN(CC(F)(F)F)C[C@H]1c1ccccc1 [Example 340] | ≤ 250 nM |
| CC(c1ccccc1)c1cc2cc3c(-c4cnc(N)nc4)n[nH]c3cc2[nH]c1=O (stereo not shown) [Example 334] | ≤ 250 nM |
| Cc1cc(-c2n[nH]c3cc4c(cc23)CN([C@@H]2CN(CCC#N)C[C@H]2c2ccccc2)C(=O)N4)ccn1 (mixture of isomers) [Example 356] | ≤ 250 nM |
| Cc1cc(-c2n[nH]c3cc4c(cc23)CN(CC2CCC2)C(=O)N4)ccn1 [Example 253] | ≤ 250 nM |
| COc1ncc(-c2n[nH]c3cc4c(cc23)CN([C@H](C)c2cccc(C#N)c2)C(=O)N4)cn1 [Example 100] | 250 to 1000 nM |

| SMILES | IC50 |
| --- | --- |
| O=C1Nc2cc3[nH]nc(-c4ccncc4)c3cc2CN1[C@@H]1CN(CC(F)(F)F)C[C@H]1c1ccccc1 [Example 342] | ≤ 250 nM |
| Cc1cc(-c2n[nH]c3cc4c(cc23)CN([C@@H]2CCN(c3cccc(Cl)c3)C2)C(=O)N4)ccn1 [Example 249] | ≤ 250 nM |
| COc1cc(-c2n[nH]c3cc4c(cc23)CN([C@@H]2CN(C)C[C@H]2c2ccccc2)C(=O)N4)ccn1 (mixture of isomers) [Example 354] | ≤ 250 nM |
| CC(c1ccccc1)c1cc2cc3c(N4CCOCC4)n[nH]c3cc2[nH]c1=O (stereo not shown) [Example 345] | ≤ 250 nM |
| CC(c1ccccc1)c1cc2cc3c(-c4ccc(=O)n(C)c4)n[nH]c3cc2[nH]c1=O (stereo not shown) [Example 347] | ≤ 250 nM |
| Cc1cc(-c2n[nH]c3cc4c(cc23)CN([C@H]2CN(CC(F)F)C[C@@H]2c2ccccc2)C(=O)N4)ccn1 [Example 383] | > 1000 nM |
| Cc1ncc(-c2n[nH]c3cc4c(cc23)CN([C@@H]2CN(CC(F)(F)F)C[C@H]2c2ccccc2)C(=O)N4)cn1 [Example 349] | ≤ 250 nM |
| Cc1cc(-c2n[nH]c3cc4c(cc23)CN(Cc2nccs2)C(=O)N4)ccn1 [Example 56] | 250 to 1000 nM |
| Cc1cc(-c2n[nH]c3cc4[nH]c(=O)c(CC5CCCCC5)cc4cc23)ccn1 [Example 266] | ≤ 250 nM |
| Cc1cc(-c2n[nH]c3cc4c(cc23)CN([C@H]2CCCN(CC(F)(F)F)C2)C(=O)N4)ccn1 [Example 309] | 250 to 1000 nM |
| Cc1cc(-c2n[nH]c3cc4c(cc23)CN([C@@H]2CCCN(Cc3cc(C5CC5)on3)C2)C(=O)N4)ccn1 [Example 188] | ≤ 250 nM |
| COc1ncc(-c2n[nH]c3cc4c(cc23)CN([C@H](C)c2cccc(Cl)c2)C(=O)N4)cn1 [Example 71] | ≤ 250 nM |
| Cc1cc(-c2n[nH]c3cc4c(cc23)CN(Cc2ccccc2C(F)(F)F)C(=O)N4)ccn1 [Example 218] | 250 to 1000 nM |
| Cc1cc(-c2n[nH]c3cc4c(cc23)CN([C@H]2CCCN(Cc3ccccc3)C2)C(=O)N4)cc(C)n1 [Example 363] | > 1000 nM |
| Cc1ccc(-c2n[nH]c3cc4[nH]c(=O)c(C5CCCN(Cc6ccccc6)C5)cc4cc23)cn1 (stereo not shown) [Example 373] | 250 to 1000 nM |
| C[C@H](c1ccc(Cl)cc1)N1Cc2cc3c(-c4ccnnc4)n[nH]c3cc2NC1=O [Example 115] | 250 to 1000 nM |
| Cc1cc(-c2n[nH]c3cc4[nH]c(=O)c(C(C)c5ccc(F)cc5F)cc4cc23)ccn1 (stereo not shown) [Example 312] | ≤ 250 nM |
| O=C1Nc2cc3[nH]nc(-c4ccnnc4)c3cc2CN1Cc1ccc(F)cc1 [Example 97] | 250 to 1000 nM |
| Cc1cc(-c2n[nH]c3cc4c(cc23)CN(CCc2ccc(F)cc2)CC(=O)N4)ccn1 [Example 67] | > 1000 nM |
| Cc1cc(-c2n[nH]c3cc4c(cc23)CN(CC2CCOCC2)C(=O)N4)cc(C)n1 [Example 250] | ≤ 250 nM |
| COc1ncc(-c2n[nH]c3cc4[nH]c(=O)c(C(C)c5cccc(Cl)c5)cc4cc23)cn1 (stereo not shown) [Example 129] | 250 to 1000 nM |
| Cc1cc(-c2n[nH]c3cc4c(cc23)CN([C@@H]2CN(CC(F)(F)F)C[C@H]2C)C(=O)N4)ccn1 (racemic) [Example 302] | ≤ 250 nM |

| SMILES | IC50 |
| --- | --- |
| O=C1Nc2cc3[nH]nc(-c4ccc(F)cc4)c3cc2CN1Cc1ccc(F)c(Cl)c1 [Example 40] | > 1000 nM |
| Cc1cc(-c2n[nH]c3cc4[nH]c(=O)c(C5CCCN(Cc6cc(F)ccc6F)C5)cc4cc23)ccn1 (stereo not shown) [Example 336] | ≤ 250 nM |
| CC(C)c1cc(-c2n[nH]c3cc4c(cc23)CN(Cc2cccc(Cl)c2)C(=O)N4)ccn1 [Example 230] | 250 to 1000 nM |
| C[C@H](c1cccc(Cl)c1)N1Cc2cc3c(-c4ccnnc4)n[nH]c3cc2NC1=O [Example 111] | 250 to 1000 nM |
| Cc1ccc(-c2n[nH]c3cc4c(cc23)CN([C@@H]2CCN(CC(F)(F)F)C2)C(=O)N4)cn1 [Example 274] | ≤ 250 nM |
| COc1ncc(-c2n[nH]c3cc4c(cc23)CN([C@H](C)c2ccc(Cl)cc2)C(=O)N4)cn1 [Example 95] | 250 to 1000 nM |
| Cc1cc(-c2n[nH]c3cc4c(cc23)CN([C@@H]2CCCN(C(C)C)C2)C(=O)N4)ccn1 [Example 247] | > 1000 nM |
| Cn1nccc1-c1n[nH]c2cc3c(cc12)CN([C@@H]1CCCN(Cc2ccccc2)C1)C(=O)N3 [Example 261] | ≤ 250 nM |
| COc1ncc(-c2n[nH]c3cc4c(cc23)CN([C@@H]2CCN(CC(F)(F)F)C2)C(=O)N4)cn1 [Example 276] | ≤ 250 nM |
| Cc1cc(-c2n[nH]c3cc4c(cc23)CN(C2CCN(CCc3ccccc3)CC2)C(=O)N4)ccn1 [Example 157] | > 1000 nM |
| Cc1cc(-c2n[nH]c3cc4c(cc23)CN([C@@H]2CCCN(Cc3cccnc3C)C2)C(=O)N4)ccn1 [Example 170] | 250 to 1000 nM |
| O=C1Nc2cc3[nH]nc(-c4ccnnc4)c3cc2CN1Cc1ccc(F)cc1F [Example 114] | 250 to 1000 nM |
| Cc1cc(-c2n[nH]c3cc4c(cc23)CN([C@@H]2CCCN(CCc3ccc(F)cc3)C2)C(=O)N4)ccn1 [Example 167] | > 1000 nM |
| Cc1cc(-c2n[nH]c3cc4c(cc23)CN(C2CCC(=O)N(Cc3ccccc3)C2)C(=O)N4)ccn1 (stereo not shown) [Example 232] | 250 to 1000 nM |
| Cc1cc(-c2n[nH]c3cc4c(cc23)CN([C@@H]2CCCN(Cc3cnccc3C)C2)C(=O)N4)ccn1 [Example 183] | 250 to 1000 nM |
| Cc1cc(-c2n[nH]c3cc4c(cc23)CN([C@H]2CCN(CC(F)(F)F)C2)C(=O)N4)cc(C)n1 [Example 310] | 250 to 1000 nM |
| Cc1cc(-c2n[nH]c3cc4c(cc23)CN([C@H]2CN(CC(F)(F)F)C[C@@H]2c2ccccc2)C(=O)N4)ccn1 [Example 303] | > 1000 nM |
| COCCOCCN1Cc2cc3c(-c4ccnc(C)c4)n[nH]c3cc2NC1=O [Example 45] | 250 to 1000 nM |
| Cc1cc(-c2n[nH]c3cc4c(cc23)CN([C@@H]2CCCN(CCC(C)C)C2)C(=O)N4)ccn1 [Example 169] | 250 to 1000 nM |
| Nc1ncc(-c2n[nH]c3cc4c(cc23)CN([C@@H]2CN(CC(F)(F)F)C[C@H]2c2ccccc2)C(=O)N4)cn1 [Example 351] | 250 to 1000 nM |
